Data reported in US6335333B1, “N-arylsulfonylamino acid omega-amides” (Aventis Pharma Deutschland GmbH, priority 1998, dated 2002).
Values after ≈ are worked out from the molar mass of the structure shown. Where a name gives a salt, the structure may show the parent alone. Read-outs that look alike come from different tables or passages of the source.

Legend:
[1] = Determination of the solubility in water (HPLC against external standard); assay type: physicochemical
Description: Determination of the solubility in water of the free acid of 2-(4′-chloro-biphenyl-4-sulfonylamino)-5-(5-fluoro-2,3-dihydroindol-1-yl)-5-oxopentanoic acid according to Example 8 and its tromethamine salt according to Example 15
(§1) Approximately 50 mg of test substance according to 1.1a) were initially introduced into a 100 ml Erlenmeyer flask. After addition of 10 ml of water, the mixture was stirred at 25° C. After 2 hours (h) and after 3 h, aliquots were taken and centrifuged. 1 ml each of the supernatant was diluted to 10 ml with mobile phase. The concentration of the active component was determined by means of HPLC against an external standard. Repetition of the experiment.
as §1, with “Approximately 800” for “Approximately 50”, “of the tromethamine salt” for “of test substance”, “to 1.1b)” for “to 1.1a)”, “2 h” for “2 hours (h)”, “to 100” for “to 10”

[2] = target: T1, neutrophil collagenase (MMP-8) (Homo sapiens, UniProt P22894); experiment: Inhibition of enzymatic activity of catalytic domain of neutrophil collagenase (fluorogenic substrate); assay type: biochemical; settings: pH 6.5, 15 min preincubation
T1 construct: catalytic domain of human stromelysin and of neutrophil collagenase; made in house
Description: (§2) Preparation and determination of the enzymatic activity of the catalytic domain of human stromelysin and of neutrophil collagenase.
(§3) The two enzymes—stromelysin (MMP-3) and neutrophil collagenase (MMP-8)—were prepared according to Ye et al. (Biochemistry; 31 (1992) pages 11231-11235) or Weithmann et al. (Inflamm Res 46(1997) 246-252). For measurement of the inhibitory action on the enzymatic activity, 70 μl of buffer solution and 10 μl of enzyme solution were incubated for 15 minutes with 10 μl of a 10% strength (v/v) aqueous dimethyl sulfoxide solution which optionally contained the enzyme inhibitor. After addition of 10 μl of a 10% strength (v/v) aqueous dimethyl sulfoxide solution which contained 1 mmol/l of the substrate, the enzyme reaction was monitored by fluorescence spectroscopy (328 nm (ex)/393 nm (em)). The enzyme activity was shown as the extinction increase/minute. The IC50 values listed in Table 2 were determined as those inhibitor concentrations which in each case led to a 50% inhibition of the enzyme. The buffer solution contained 0.05% of Brij (Sigma, Deisenhofen, Germany) and 0.1 mol/l of piperazine-N,N′-bis[2-ethanesulfonic acid]/NaOH, 0.1 mol/l of NaCl, 0.01 mol/l of CaCl2 and 0.1 mol/l of piperazine-N,N′-bis[2-ethanesulfonic acid] (pH=6.5). The enzyme solution contained 5 μg/ml of one of the enzyme domains prepared according to Ye et al. The substrate solution contained 1 mmol/l of the fluorogenic substrate (7-methoxycoumarin-4-yl)acetyl-Pro-Leu-Gly-Leu-3-(2′,4′-dinitrophenyl)-L-2,3-diaminopropionyl-Ala-Arg-NH2 (Bachem, Heidelberg, Germany).

[3] = target: T2, human stromelysin (MMP-3) (Homo sapiens, UniProt P08254); experiment: Inhibition of enzymatic activity of catalytic domain of stromelysin (fluorogenic substrate); assay type: biochemical; settings: pH 6.5, 15 min preincubation
T2 construct: enzymatic activity of the catalytic domain of human stromelysin; made in house
Description: as §2, §3

T2 sequence (P08254 100-272 limits assumed): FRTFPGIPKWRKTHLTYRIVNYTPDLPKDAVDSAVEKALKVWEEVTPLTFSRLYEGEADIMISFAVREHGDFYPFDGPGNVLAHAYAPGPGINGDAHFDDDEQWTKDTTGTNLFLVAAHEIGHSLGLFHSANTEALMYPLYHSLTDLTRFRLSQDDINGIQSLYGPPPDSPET
T1 sequence (P22894 100-262 limits assumed): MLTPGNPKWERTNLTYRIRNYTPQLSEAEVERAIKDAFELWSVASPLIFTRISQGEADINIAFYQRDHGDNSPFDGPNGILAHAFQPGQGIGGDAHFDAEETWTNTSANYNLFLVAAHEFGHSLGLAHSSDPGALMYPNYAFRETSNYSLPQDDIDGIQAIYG

| SMILES | IC50 [2] [nM] | IC50 [3] [nM] | further results |
| --- | --- | --- | --- |
| O=C(O)[C@H](CCC(=O)N1CCc2ccccc21)NS(=O)(=O)c1ccc(-c2ccc(Cl)cc2)cc1 (stereo in doubt) [Example 8, 2-(4′-Chlorobiphenyl-4-sulfonylamino)-5-(2,3-dihydroindol-1-yl)-5-oxopentanoic acid] |  |  | solubility at 2 h ([1]; thermodynamic from solid, water, 25° C., stirred 2 h, mean value from two determinations, read-out: Solubility in water at 25° C. after 2 h): 200 µg/mL (≈ 401 µM); solubility at 3 h ([1]; thermodynamic from solid, water, 25° C., stirred 3 h, mean value from two determinations, read-out: Solubility in water at 25° C. After 3 h): 100 µg/mL (≈ 200 µM); Solubility in water at 25° C. Result ([1]; water, 25° C., data value obtained after 3 h is used): 100 µg/mL (≈ 200 µM) |
| O=C(CC[C@H](NS(=O)(=O)c1ccc(-c2ccccc2)cc1)C(=O)O)Nc1cccc2ccccc12 [Example 1, 2-(biphenyl-4-sulfonylamino)4-(naphthalen-1-ylcarb-amoyl)butyric acid] | 10 | 100 |  |
| O=C(CC[C@H](NS(=O)(=O)c1ccc(-c2ccccc2)cc1)C(=O)O)Nc1ccc2ccccc2c1 [Example 2, 2-(biphenyl-4-sulfonylamino)-4-(naphthalen-2-yl-carbamoyl)butyric acid] |  | 200 |  |
| O=C(CC[C@H](NS(=O)(=O)c1ccc(-c2ccccc2)cc1)C(=O)O)NCCNc1ccccc1 [Example 3, 2-(biphenyl-4-sulfonylamino)-4-(2-phenylamino-ethylcarbamoyl)butyric acid] |  | 200 |  |
| O=C(CC[C@H](NS(=O)(=O)c1ccc(-c2ccc(Cl)cc2)cc1)C(=O)O)NCCCN1CCOCC1 [Example 4, 2-(4′-chloro-biphenyl-4-sulfonylamino)-4-(3-morpholin-4-ylpropylcarbamoyl)butyric acid] |  | 100 |  |
| O=C(CC[C@H](NS(=O)(=O)c1ccc(-c2ccccc2)cc1)C(=O)O)NCCCN1CCOCC1 [Example 5, 4-(3-(4-(Biphenyl-4-sulfonylamino)-4-carboxybutyrylamino)-propyl)morpholin-4-ium trifluoroacetate] | 6 | 100 |  |
| O=C(O)[C@H](CCC(=O)N1CCc2ccccc21)NS(=O)(=O)c1ccc(-c2ccccc2)cc1 [Example 6, 2-(Biphenyl-4-sulfonylamino)-5-(2,3-dihydroindol-1-yl)-5-oxopentanecarboxylic acid] |  | 500 |  |
| O=C(O)[C@H](CCC(=O)N1CCc2ccccc21)NS(=O)(=O)c1ccc(-c2ccc(N3CCCC3)cc2)cc1 [Example 7, 5-(2,3-dihydroindol-1-yl)-5-oxo-2-(4′-pyrrolidin-1-yl-biphenyl-4-sulfonyl-amino)pentanoic acid] | 4 | 40 |  |
| O=C(O)[C@H](CCC(=O)N1CCc2ccccc21)NS(=O)(=O)c1ccc(-c2ccc(Cl)cc2)cc1 [Example 8, 2-(4′-Chlorobiphenyl-4-sulfonylamino)-5-(2,3-dihydroindol-1-yl)-5-oxopentanoic acid] | 10 | 100 |  |
| O=C(O)[C@H](CCC(=O)N1CCc2ccccc21)NS(=O)(=O)c1ccc(-c2ccc(Br)cc2)cc1 [Example 9, 2-(4′-bromobiphenyl-4-sulfonyl-amino)-5-(2,3-dihydroindol-1-yl)-5-oxopentanoic acid] |  | 100 |  |
| O=C(O)[C@H](CCC(=O)N1CCc2cc(F)ccc21)NS(=O)(=O)c1ccc(-c2ccc(Cl)cc2)cc1 [Example 10, 2-(4′-chloro-biphenyl-4-sulfonylamino)-5-(5-fluoro-2,3-dihydroindol-1-yl)-5-oxopentanoic acid] |  | 100 |  |
| O=C(O)[C@H](CCC(=O)N1CCc2cc(F)ccc21)NS(=O)(=O)c1ccc(-c2ccc(Br)cc2)cc1 [Example 11, 2-(4′-bromobiphenyl-4-sulfonylamino)-5-(5-fluoro-2,3-dihydroindol-1-yl)-5-ox-opentanoic acid] |  | 100 |  |
| O=C(O)[C@H](CCC(=O)N1CCc2cc(F)ccc21)NS(=O)(=O)c1ccc(-c2ccc(N3CCCC3)cc2)cc1 [Example 12, 5-(5-Fluoro-2,3-dihydroindol-1-yl)-5-oxo-2-(4′-pyrrolidin-1-ylbiphenyl-4-sulfonylamino)pentanoic acid] | 2 | 30 |  |
| O=C(O)[C@H](CCC(=O)N1CCc2cc(F)ccc21)NS(=O)(=O)c1ccc(-c2ccc(N3CCOCC3)cc2)cc1 [Example 13, 5-(5-fluoro-2,3-dihydroindol-1-yl)-2-(4′-morpholin-4-yl-biphenyl-4-sulfonylamino)-5-oxopentanoic acid] | 10 | 100 |  |
| O=C(O)[C@@H](CCC(=O)N1CCc2ccccc21)NS(=O)(=O)c1ccc(-c2ccc(Cl)cc2)cc1 [Example 14] | 10 | 50 |  |
| NC(CO)(CO)CO.O=C(O)C(CCC(=O)N1CCc2ccccc21)NS(=O)(=O)c1ccc(-c2ccc(Cl)cc2)cc1 (stereo not shown) [Example 15, Tromethamine salt of 2-(4′-chlorobiphenyl-4-sulfonylamino)-5-(2,3-dihydroindol-1-yl)-5-oxopentanoic acid] |  |  | Solubility in water at 25° C. After 3 h [1]: 58000 µg/mL; Solubility in water at 25° C. Result [1]: 58000 µg/mL; Solubility in water at 25° C. after 2 h [1]: 58000 µg/mL; Water solubility of tromethamine salt higher than that of the free acid, factor [1]: ~600 |
